Source: patent US20230020161A1, “Tricyclic Modulators of PP2A” (Rappta Therapeutics Oy, priority 2020, published 2023)

Experiments:
[1] = target: T1, Human Pregnane X Receptor (PXR, NR1I2) (Homo sapiens, UniProt O75469); experiment: PXR activation assay (Puracyp DPX2-96-001); assay type: cell-based
T1 construct: host or cells: DPX2 cells of the kit
T1 sequence (O75469 1-434): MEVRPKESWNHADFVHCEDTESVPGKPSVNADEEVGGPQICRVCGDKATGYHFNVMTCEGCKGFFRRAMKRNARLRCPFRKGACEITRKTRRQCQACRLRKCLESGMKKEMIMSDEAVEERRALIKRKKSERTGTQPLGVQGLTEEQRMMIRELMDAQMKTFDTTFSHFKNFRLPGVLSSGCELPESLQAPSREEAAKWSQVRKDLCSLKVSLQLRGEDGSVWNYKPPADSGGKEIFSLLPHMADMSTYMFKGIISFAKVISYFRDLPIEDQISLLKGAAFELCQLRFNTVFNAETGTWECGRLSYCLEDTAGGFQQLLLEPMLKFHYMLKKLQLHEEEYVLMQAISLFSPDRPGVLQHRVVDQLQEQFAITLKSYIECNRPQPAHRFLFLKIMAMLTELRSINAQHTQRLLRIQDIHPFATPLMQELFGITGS
From the text: PXR is a nuclear hormone receptor involved in the transcriptional regulation of a number of metabolic enzymes (e.g. CYP3A4) and transporters (e.g. PGP). Its activation by xenobiotic substances leads to upregulation of those metabolic enzymes and transporters and consequent removal of those substances from systemic circulation. It is not uncommon to find that drugs activate the PXR receptor with problematic consequences. […] In addition, if the drug itself is metabolized by, for example, CYP3A4, then there can be reduced exposure of the drug on repeated administration (auto-induction). It is thus considered beneficial to eliminate or at least minimize PXR activation if drug candidates. For drug series where PXR activation is significant, PXR activation is generally treated as a key criterion for optimization and advancement (V. Chu et al., Drug Metab. Dispos. 37, 1339 (2009).
PXR activation assay was performed according to manufacturer's instructions (Puracyp, Inc, Catalog #DPX2-96-001).

LNCaP cells = experiment: Cell viability assay (MTS) in LNCaP cells; assay type: cell-based; conditions: doses 1 μM to 80 μM
Description: Cell line LNCaP was used for this assay. LNCaP cells were plated in 96-well plates at a density of 5000 cells per well. After 24 hours of plating, cells were treated with increasing doses of compound ranging from 1 μM to 80 μM. Relative cell numbers were analyzed after 48 hours using a 3-(4,5-dimethylthiazol-2-yl)-5-(3-carboxymethoxyphenyl)-2-(4-sulfophenyl)-2H-tetrazolium (MTS) assay (Promega) according to the manufacturer's directions.
LNCaP cells were treated with increasing doses of Target compound and cell viability was measured at 48 hours by MTS analysis.
The cell viability data was analyzed with GraphPad Prism software. The values were log transformed and analyzed with nonlinear regression (curve-fit) using log(inhibitor) vs. response variable slope (four parameters) and constraining the bottom to equal zero.

[2] = Concentration observed is at 10 μM

SMILES	Maximum fold activation observed (Average) [1, 2]	Percent positive control response [1, 2]	GI50 (LNCaP cells; Homo sapiens, LNCaP, 48 h)	Percent positive control response ([1]; @30 μM)	GI50 (LNCaP cells; 48 hours)
CN=[S@@](=O)(N[C@@H]1COC[C@H](N2c3ccccc3Oc3ccccc32)[C@H]1O)c1ccc(OC(F)(F)F)cc1 (relative stereo) [Target T15-2]	7.15	41.8%	23.6 µM		
N=[S@@](=O)(N[C@@H]1COC[C@H](n2c3ccc(Cl)cc3c3cc(Cl)ccc32)[C@H]1O)c1ccc(OC(F)(F)F)cc1 (relative stereo) [Target T17-2]	2.45	9.88%	9.64 µM		
CN=[S@](=O)(N[C@@H]1COC[C@H](n2c3ccc(Cl)cc3c3cc(Cl)ccc32)[C@H]1O)c1ccc(OC(F)(F)F)cc1 (relative stereo) [Target T18-1]	1.79	5.37%	8.53 µM		
CN=[S@](=O)(N[C@@H]1COC[C@H](N2c3ccccc3Oc3ccccc32)[C@H]1O)c1ccc(OC(F)(F)F)cc1 (relative stereo) [Target T15-1]	3.89	19.6%	16.6 µM		
N=[S@](=O)(NC[C@H](O)CN1c2ccccc2CCc2ccccc21)c1ccc(OC(F)(F)F)cc1 (single isomer, unassigned) [Target T5d2]			20.2 µM		
O=S(=O)(N[C@@H]1COC[C@H](n2c3ccc(Cl)cc3c3cc(Cl)ccc32)[C@H]1O)c1ccc(OC(F)(F)F)cc1 [Target T16, reference compound]	3.93	16.7%	8.2 µM		
O=S(=O)(N[C@@H]1COC[C@H](N2c3ccccc3Oc3ccccc32)[C@H]1O)c1ccc(OC(F)(F)F)cc1 [T10 (DT-061), reference compound]	17.3	89.8%	10.7 µM		
O=S(=NCC1CC1)(N[C@@H]1COC[C@H](N2c3ccccc3Oc3ccccc32)[C@H]1O)c1ccc(OC(F)(F)F)cc1 (stereo partly drawn) [Target T15A, N-(cyclopropylmethyl)-N′-((3R,4R,5S)-4-hydroxy-5-(10H-phenoxazin-10-yl)tetrahydro-2H-pyran-3-yl)-4-(trifluoromethoxy) benzenesulfonimidoamide]			9.54 µM		
N=[S@@](=O)(N[C@@H]1COC[C@H](N2c3ccccc3Oc3ccccc32)[C@H]1O)c1ccc(OC(F)(F)F)cc1 (relative stereo) [Target T14-2]	4.12	21.2%	25.6 µM		
N=[S@@](=O)(N[C@@H]1CCC[C@H](N2c3ccccc3Oc3ccccc32)[C@H]1O)c1ccc(OC(F)(F)F)cc1 (relative stereo) [Target T11-2]	4.82	26%	16.8 µM		
CCCN=S(=O)(N[C@@H]1COC[C@H](N2c3ccccc3Oc3ccccc32)[C@H]1O)c1ccc(OC(F)(F)F)cc1 (stereo partly drawn) [Target T15C, N-((3R,4R,5S)-4-hydroxy-5-(10H-phenoxazin-10-yl)tetrahydro-2H-pyran-3-yl)-N′-propyl-4-(trifluoromethoxy) benzenesulfonimidoamide]			55.4 µM		
N=[S@](=O)(N[C@@H]1COC[C@H](N2c3ccccc3Oc3ccccc32)[C@H]1O)c1ccc(OC(F)(F)F)cc1 (relative stereo) [Target T14-1]	6.21		25.6 µM	35.4 @30 μM %	
CN=[S@](=O)(NC[C@H](O)CN1c2ccccc2CCc2ccccc21)c1ccc(OC(F)(F)F)cc1 (single isomer, unassigned) [Target T6d2]			24.5 µM		
N=[S@@](=O)(NC[C@H](O)CN1c2ccccc2CCc2ccccc21)c1ccc(OC(F)(F)F)cc1 (single isomer, unassigned) [Target T5d1]			25.8 µM		
N=[S@](=O)(N[C@@H]1CCC[C@H](N2c3ccccc3Oc3ccccc32)[C@H]1O)c1ccc(OC(F)(F)F)cc1 (relative stereo) [Target T11-1]	4.57	24.2%	16.7 µM		
CN=[S@@](=O)(NC[C@H](O)CN1c2ccccc2CCc2ccccc21)c1ccc(OC(F)(F)F)cc1 (single isomer, unassigned) [Target T6d1]			22.7 µM		
N=[S@](=O)(N[C@@H]1COC[C@H](n2c3ccc(Cl)cc3c3cc(Cl)ccc32)[C@H]1O)c1ccc(OC(F)(F)F)cc1 (relative stereo) [Target T17-1]	2.43	9.75%	10.2 µM		
CN=[S@@](=O)(N[C@@H]1COC[C@H](n2c3ccc(Cl)cc3c3cc(Cl)ccc32)[C@H]1O)c1ccc(OC(F)(F)F)cc1 (relative stereo) [Target T18-2]	2.36	9.23%	12.2 µM		
O=S(=O)(N[C@@H]1COC[C@H](N2c3ccccc3Oc3ccccc32)[C@H]1O)c1ccc(OC(F)(F)F)cc1 [Target T13, reference compound]	11	57%			14.2 µM
